Structures are written as SMILES.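 In this assay, cells in 96-well plates receive the compound at five concentrations for 48 hours. Endpoints are linearly interpolated between the surrounding concentrations. GI50 is the concentration that inhibits growth by half.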 Active and inactive are the calls of the source. No stated cut-off is given here; in the data, active = GI50 up to about 1.1 µM and inactive = higher.

Among the test systems are A549; LOX IMVI; 786-0; IGROV-1; NCI-H226; Malme-3M; HT-29; OVCAR-4; NCI-H522; COLO 205; KM12; HOP-62; HCT-15; NCI/ADR-RES; SK-MEL-5; CCRF-CEM; K562; PC-3; SK-OV-3; Hs-578T.
Holding throughout (experiment): growth of human tumour cells (NCI), 48 h

Take `CC1(C)OCN(c2ccc(Cl)cc2)Cn2c1nc1ccccc12`: the GI50 in the test on A549 was 6.44 µM (inactive); in the test with LOX IMVI it was 3.21 µM (inactive); with 786-0, > 89.9 µM (inactive); with IGROV-1 it was 2.44 µM (inactive); in the test with NCI-H226 it was > 100 µM (inactive); in the test with Malme-3M it was > 100 µM (inactive). Further, the GI50 is > 100 µM (inactive) in the test on HT-29; 51.4 µM (inactive) in the test on OVCAR-4; 12.6 µM (inactive) in the test with NCI-H522; 3.34 µM (inactive) in the test on COLO 205; 1.61 µM (inactive) with KM12; > 27.3 µM (inactive) in the test on HOP-62. Also, the GI50 is 0.431 µM in the test on HCT-15; 27 µM (inactive) in the test with NCI/ADR-RES; 0.571 µM (active) with SK-MEL-5; 11.4 µM (inactive) in the test with CCRF-CEM; 0.904 µM (active) in the test with K562; 1.94 µM (inactive) with PC-3. For the same compound, in the test on SK-OV-3, the GI50 is > 100 µM (inactive).
In the case of `O=C(O)C1OC1C(=O)O` (stereo not given), the GI50 in the test on A549, in the test with LOX IMVI, in the test with 786-0, in the test on Hs-578T, with IGROV-1 and with NCI-H226 was > 100 µM (inactive) throughout. For the same compound, the GI50 in the test on Malme-3M, in the test on HT-29, in the test with OVCAR-4, in the test on NCI-H522, with COLO 205 and with KM12 was > 100 µM (inactive) each time. Further, the GI50 in the test on HOP-62 was > 100 µM (inactive); in the test on HCT-15, > 100 µM; with NCI/ADR-RES, > 100 µM (inactive); with SK-MEL-5, > 100 µM (inactive); in the test on K562 it was > 100 µM (inactive); in the test with SK-OV-3, > 100 µM (inactive).
Consider `Nc1ccn(C2OC(C(OC3OC(CO)C(O)C(N)C3O)C(O)C(O)C(O)C(O)CO)C(N)C(O)C2O)c(=O)n1` (stereo not given), for which the GI50 in the test with A549 was > 100 µM (inactive); in the test on LOX IMVI, 21.7 µM (inactive); in the test on 786-0, 35.5 µM (inactive); in the test with Hs-578T, 1.98 µM (inactive); in the test with IGROV-1 it was 30.7 µM (inactive); in the test on HT-29, > 100 µM (inactive). For the same compound, the GI50 in the test on OVCAR-4 was 3.54 µM (inactive); in the test on NCI-H522, 22.5 µM (inactive); with COLO 205 it was > 100 µM (inactive); in the test on KM12 it was 70 µM (inactive); with HOP-62, 20.7 µM (inactive); in the test with HCT-15, 36.3 µM. Also, the GI50 with NCI/ADR-RES is 49.1 µM (inactive); with SK-MEL-5, > 100 µM (inactive); in the test on CCRF-CEM, > 100 µM (inactive); with PC-3 it was 50.7 µM (inactive).
Regarding `Cc1cc(=O)oc2cc(OCc3c(F)cccc3Cl)ccc12`, the GI50 in the test on A549 is > 100 µM (inactive); in the test with LOX IMVI, 11.5 µM (inactive); in the test on 786-0, 11.6 µM (inactive); with Hs-578T it was 21.9 µM (inactive); in the test with IGROV-1, 9.46 µM (inactive); in the test with NCI-H226 it was 33.3 µM (inactive). Moreover, the GI50 in the test with Malme-3M was 0.728 µM (active); in the test on OVCAR-4, 48.4 µM (inactive); in the test on NCI-H522, 11.1 µM (inactive); in the test on KM12, 1.99 µM (inactive); in the test with HOP-62, 13 µM (inactive); in the test with SK-MEL-5 it was 3.66 µM (inactive). Also, in the test with PC-3, the GI50 was 3.56 µM (inactive).
Turning to `COc1cc(C2c3cc4c(cc3OC(NN=C(C)C)C2C)OCO4)cc(OC)c1O` (stereo not given), the GI50 with A549 is 22.9 µM (inactive); in the test on 786-0, 28.1 µM (inactive); in the test on IGROV-1, 15.7 µM (inactive); in the test on NCI-H226, > 100 µM (inactive); with Malme-3M it was 8.75 µM (inactive); in the test on HT-29 it was 36 µM (inactive). The GI50 with OVCAR-4 was 48.3 µM (inactive); with NCI-H522, 3.94 µM (inactive); in the test on COLO 205 it was 30.9 µM (inactive); in the test on KM12, 21.2 µM (inactive); with HCT-15 it was 7.43 µM; with NCI/ADR-RES, 18 µM (inactive). Besides, the results for the GI50 with SK-MEL-5 and with PC-3 were 10.8 µM (inactive) and 20.8 µM (inactive), respectively.
With `Oc1cccc(-c2nc3cc(F)ccc3s2)c1`, the GI50 in the test on A549 was 23.6 µM (inactive); in the test with LOX IMVI it was 15.6 µM (inactive); in the test with 786-0 it was 19.5 µM (inactive); in the test with IGROV-1 it was 2.34 µM (inactive); with NCI-H226 it was 9.46 µM (inactive); in the test with Malme-3M, 16.2 µM (inactive). For the same compound, the GI50 in the test with HT-29 is 16.6 µM (inactive); in the test with OVCAR-4, 9.42 µM (inactive); in the test with NCI-H522, 10.6 µM (inactive); in the test on COLO 205, 15.1 µM (inactive); with KM12 it was 11.9 µM (inactive); with HCT-15, 11.2 µM. Also, the GI50 is 17.4 µM (inactive) with NCI/ADR-RES; 10.7 µM (inactive) in the test with SK-MEL-5; 22.3 µM (inactive) in the test with CCRF-CEM; 27.5 µM (inactive) in the test on K562; 24.2 µM (inactive) in the test with PC-3; 16.7 µM (inactive) in the test with SK-OV-3.
For the compound `CN(C)C(=S)N/N=C\C(=N/NC(=S)N(C)C)c1ccccc1`, the GI50 is 5.31 µM (inactive) in the test with A549; 9.02 µM (inactive) with LOX IMVI; 7.33 µM (inactive) in the test with 786-0; 4.57 µM (inactive) with Hs-578T; 3.7 µM (inactive) in the test with IGROV-1; 4.61 µM (inactive) with NCI-H226. For the same compound, the GI50 in the test with HT-29 was 5.16 µM (inactive); in the test with OVCAR-4 it was 5.74 µM (inactive); with NCI-H522, 3.15 µM (inactive); in the test with COLO 205, 4.03 µM (inactive); in the test on KM12 it was 15 µM (inactive); in the test with HOP-62 it was 6.05 µM (inactive). For the same compound, the GI50 in the test on HCT-15 is 2.71 µM; in the test with NCI/ADR-RES, 2.98 µM (inactive); in the test with SK-MEL-5, 9.84 µM (inactive); with K562 it was 4.68 µM (inactive); in the test on SK-OV-3, 12.3 µM (inactive).
Regarding `Cc1c(N)nc([C@H](CC(N)=O)NC[C@H](N)C(N)=O)nc1C(=O)N[C@H](C(=O)N[C@H](C)[C@@H](O)[C@H](C)C(=O)N[C@H](C(=O)NCCc1nc(-c2nc(C(=O)NCCC[S+](C)C)cs2)cs1)[C@@H](C)O)C(OC1OC(CO)C(O)C(O)C1OC1OC(CO)C(O)C(OC(N)=O)C1O)c1c[nH]cn1` (stereo not given in full), the GI50 is 0.716 µM (active) with A549; 0.161 µM (active) with LOX IMVI; 1.05 µM (active) in the test with 786-0; 2.29 µM (inactive) in the test on IGROV-1; 0.222 µM (active) in the test with NCI-H226; 0.356 µM (active) in the test with Malme-3M. Also, the GI50 is 14.1 µM (inactive) in the test with HT-29; 4.92 µM (inactive) with OVCAR-4; 0.622 µM (active) in the test on NCI-H522; 6.05 µM (inactive) in the test with COLO 205; 15.6 µM (inactive) in the test with KM12; 0.0838 µM (active) in the test on HOP-62. Further, the GI50 in the test with HCT-15 was 3.27 µM; in the test with NCI/ADR-RES it was 0.904 µM (active); in the test on SK-MEL-5 it was 0.776 µM (active); in the test with CCRF-CEM, 6.75 µM (inactive); in the test on K562, 8.45 µM (inactive); in the test with PC-3, 7.73 µM (inactive). For the same compound, the GI50 with SK-OV-3 was 6.46 µM (inactive).
For the compound `O=C1Nc2ccccc2/C1=N/NC(=S)N1CCCCCC1`, the GI50 is 0.643 µM (active) in the test with A549; 0.507 µM (active) in the test with LOX IMVI; 0.332 µM (active) in the test with 786-0; 0.187 µM (active) with IGROV-1; 1.36 µM (inactive) in the test with NCI-H226; 0.272 µM (active) with Malme-3M. Moreover, the GI50 was 1.3 µM (inactive) with HT-29; 1.38 µM (inactive) in the test with OVCAR-4; 2.47 µM (inactive) in the test on NCI-H522; 1.03 µM (active) in the test on COLO 205; 0.283 µM (active) in the test on KM12; 0.242 µM (active) with HOP-62. For the same compound, the GI50 in the test with HCT-15 is 0.45 µM; with NCI/ADR-RES, 0.0769 µM (active); in the test with SK-MEL-5 it was 0.0723 µM (active); with PC-3, 0.453 µM (active); with SK-OV-3, 1.65 µM (inactive).
Regarding `O=C(CC(C(=O)c1ccsc1)c1ccccc1)c1cccs1` (stereo not given), the GI50 was > 100 µM (inactive) with 786-0; 58.7 µM (inactive) with Hs-578T; > 100 µM (inactive) in the test on IGROV-1; > 100 µM (inactive) in the test with NCI-H226; 69.2 µM (inactive) in the test on HT-29; 55 µM (inactive) with OVCAR-4. The GI50 was 41.6 µM (inactive) in the test on NCI-H522; > 100 µM (inactive) with COLO 205; 26.8 µM (inactive) in the test on KM12; > 100 µM (inactive) with HOP-62; 56.9 µM in the test with HCT-15; 22.5 µM (inactive) in the test on NCI/ADR-RES. The GI50 in the test with SK-MEL-5 is 43.2 µM (inactive); with CCRF-CEM, 80.5 µM (inactive); in the test on K562, > 100 µM (inactive); in the test on SK-OV-3, > 100 µM (inactive).
`CC(C)CCNC(=O)c1ccc(CNC(=O)/C=C/c2ccc3ccccc3c2)cc1`: the GI50 in the test on A549 is > 100 µM (inactive); in the test with LOX IMVI, > 100 µM (inactive); in the test on 786-0 it was > 100 µM (inactive); in the test with NCI-H226, > 100 µM (inactive); with OVCAR-4, 59.3 µM (inactive); in the test with COLO 205 it was > 100 µM (inactive). Besides, the GI50 is > 100 µM (inactive) in the test with KM12; > 100 µM (inactive) with HOP-62; > 100 µM in the test with HCT-15; > 100 µM (inactive) with NCI/ADR-RES; > 100 µM (inactive) in the test on SK-MEL-5; > 10 µM (inactive) in the test on CCRF-CEM. Moreover, the GI50 in the test on K562, in the test on PC-3 and in the test with SK-OV-3 was > 100 µM (inactive) in each case.
With `COC1=CC(=O)C(O)=C(C[C@@]2(C)[C@@H]3CCC[C@H](COC(=O)CCCCCNC(=O)OC(C)(C)C)[C@@]3(C)CC[C@@H]2C)C1=O`, the GI50 in the test on A549 was 3.59 µM (inactive); in the test on LOX IMVI, > 10 µM (inactive); in the test with 786-0 it was > 10 µM (inactive); in the test with Hs-578T it was 4.52 µM (inactive); in the test on IGROV-1, 3.61 µM (inactive); in the test with NCI-H226, 8.45 µM (inactive). In addition, the GI50 was 5.9 µM (inactive) in the test on Malme-3M; 5.12 µM (inactive) in the test with HT-29; > 10 µM (inactive) with OVCAR-4; 3.05 µM (inactive) with NCI-H522; 4.08 µM (inactive) in the test on COLO 205; > 10 µM (inactive) in the test on KM12. For the same compound, the GI50 with HOP-62 is 5.08 µM (inactive); with SK-MEL-5, 3.77 µM (inactive); in the test on CCRF-CEM it was 1.09 µM (active); in the test on K562 it was 3.86 µM (inactive); with PC-3, > 10 µM (inactive); in the test with SK-OV-3, > 10 µM (inactive).
